Data set [1] relates to blood-brain barrier (BBB). Particulars: IA NEO100, IA mannitol; stated for comparison, no test described; cited from earlier work.
The test system of data set [2] is blood-brain barrier (BBB). Put plainly: IA ethyl alcohol, NEO100 or mannitol mediated BBB disruption, extravasated EB dye in perfused mouse brain (Experiments 1-3). Format: in vivo, mice. Particulars: for EB dye / EB dye penetration level / Patchy, or punctate pattern of EB dye: perfused mouse brain. As to the method: The method of IA and IC injection is similar to the IV push in the clinic, which comprises essentially the steps of: • pushing the injection composition at a particular infusion flow rate immediately after the placement of the IA catheter into the internal carotid artery (ICA) or the insertion of the injection needle into the left ventricle via the ultrasound-guided intracardiac (IC) puncture at room temperature.
When performing the IA and IC injections, the infusion flow rate is about 5-7 μl/second (0.3-0.45 ml/min), the infusion volume is about […] of the body weight (at 1 μl/g, volume/weight ratio), and USP purified water or sodium chloride is used to reconstitute varied EA solutions at room temperature.
Intracardiac injection of NEO100 or EA can be carried out through the procedure of ultrasound-guided intracardiac (IC) injection. […] The mouse is anesthetized in an induction chamber using 2-3% isoflurane in 100% oxygen at a rate of 0.2-0.5 L/min. Fur over the thorax area is removed and the animal is placed in a stereotactic frame in supine position, securing the upper and lower limbs to avoid body movement. The ultrasound transducer is placed above the chest of the animal, and the injection syringe is anchored to a platform to avoid erratic needle movements. An electrocardiogram monitor is used to monitor heart function during the intracardiac injection.
EB dye is used as the non-BBB permeable substance.
Photographs of the perfused brain tissues of the experimental mice after treatment are taken.
Extravasated EB dye is used as the non-BBB permeable substance.

Data set [3] relates to blood-brain barrier (BBB). Put plainly: Comparison of intracardiac EA and NEO100 mediated BBB opening, EB dye (Comparative Experiment 19, Experiment 20). Format: in vivo, mice. As to the method: Intracardiac injected various concentrations of EA (at 25%, 20%, 3%, 0.3%, and 0.1%, 0.03%, 0.01%) and NEO100 (at 25%, 20%, 3%, 0.3%, and 0.1%, 0.03%, 0.01%) are used on mice to test their effects on BBB disruption and evaluated by the observation of extravasated EB dye in the brain tissues. […] Photographs of the perfused brain tissues from the experimental mice treated with […] EA and NEO100 are taken for observation and comparison.
The same procedure as experiment 19 was performed with IA 0.3% NEO100 with 2% EB dye solution.

The conditions of data set [4]: cited from earlier work.
A short description of data set [5]: Comparison of the toxicity of IA NEO100 and IA EA (Experiment 21).
Method: The safety profile of IA 0.3% NEO100 vs. IA 0.3% EA are compared. […] There are 15 experimental mice in each testing group. The potential adverse effects are evaluated.
Data set [6] has as its system blood-brain barrier (BBB).
The mark [7] stands for this setting: IA injection 0.3%, 15 mice per group.
Setting [8] is: IA injection 0.3%, 15 mice per group, number of mice.

Like-named read-outs stand apart in the source and are kept apart here.

`C=C(C)[C@@H]1CC=C(CO)CC1` [NEO100, perillyl alcohol]: the “interval window of the breached BBB” value in data set [1] is 4 h. Besides, in data set [2] (IA agent at 0.1%), the EB dye result is “Observed”; the “EB dye penetration level” value is “Few Patchy”; the “Patchy, or punctate pattern of EB dye” value is reported as “Observed”. Moreover, in data set [2] (IA agent at 0.3%), the EB dye result was “Observed”; the “EB dye penetration level” value is “Widely”; the “Patchy, or punctate pattern of EB dye” value is “Observed”. In data set [2] (IA agent at 3%), the EB dye entry was “Observed”; the “EB dye penetration level” value is given as “Widely”; the “Patchy, or punctate pattern of EB dye” value was “Observed”. Further, in data set [2] (IA agent at 5%), the EB dye entry is reported as “Observed”; the “EB dye penetration level” value is recorded as “Widely”; the “Patchy, or punctate pattern of EB dye” value was “Observed”. Also, the “brain finding in sudden-death mouse (inferior view)” value in data set [3] (IA 0.3% NEO100 with 2% EB dye, mouse died right after treatment) was “bleeding and a blood clot”. Further, the “pattern of breached BBB, coronal section” value in data set [3] (IA 25% NEO, mice) is given as “random, haphazard, sporadic, patchy, or punctate pattern”. In data set [3] (intracardiac 25%, 20%, 3%, 0.3%, 0.1%, 0.03%, 0.01%, mice), the “dose response of BBB disruption” value is recorded as “dose-dependent manner”. For the same compound, the solubility in water result in data set [4] is recorded as “water-insoluble”. For the same compound, in data set [5] (setting [7]), the Mortality amounted to 53.33% and the “tested animals that experienced adverse effects” value is on record as “almost all”. Besides, in data set [5] (setting [8]), the “Immediate Sudden Death” value amounted to 3; the “Intermediate-lasting epilepsy post-injection leading to death” value is on record as 2; the “Long-lasting epilepsy post-injection leading death” value is 3; the “Moderate-lasting epilepsy post-injection and survival to fully recovery” value stood at 3. Besides, in data set [5] (setting [8]), the “Transient, mild, or occasional epilepsy post-injection and survival to fully recovery” value amounted to 4. For the same compound, the overall mortality rate result in data set [5] (repeated comparative experiments of IA EA and IA NEO100) is recorded as “around 60%”.

Regarding `OC[C@@H](O)[C@@H](O)[C@H](O)[C@H](O)CO` [mannitol], the “EB (induced BBB disruption)” value in data set [6] (group A: 1800 μl 25% mannitol infused in 30 seconds) was “observed”; in data set [6] (group C: 300 μl 25% mannitol at regular speed in 1 minute, warmed to 37° C.) it was “not observed”. Further, in data set [1], the “interval window of the breached BBB” value is 6 to 7 h. The “EB dye penetration level” value in data set [2] (IA agent at 0.1%), in data set [2] (IA agent at 0.3%), in data set [2] (IA agent at 3%) and in data set [2] (IA agent at 5%) was “Not” in each case. For the same compound, in data set [2] (IA mannitol at 0.1%, 0.3%, 3%, and 5%, mice), the brain damage entry was “Some brain damage is observed”. Moreover, the “disrupted BBB after IC mannitol” value in data set [2] (IC application of varied volumes of high concentrations of mannitol, mice) is on record as “No disrupted BBB is observed”.

(Values after patent US12539281B2 (priority 2021, dated 2026).)
